Where two headings read alike, the source gives them in different places.
Tests used:
IL-8 = assay: Plasma IL-8 level; format: in vivo, human; details: after 14 days of multiple dosing
Protocol: The relative changes between cycle 1, day 14 and baseline were calculated for VEGF, sVEGFR-2, bFGF, IL-8, tumour blood flow and tumour vessel permeability as measured by DCE-MRI and diastolic blood pressure (Figure 2C). […] The changes in VEGF and sVEGFR-2 plasma levels, the decrease in tumour blood flow and permeability and the increase in diastolic blood pressure were not predictive for the clinical outcome; there were no statistically significant differences in the change of biomarkers for patients who reached a progression-free survival of >3 months compared with those who stopped treatment during the first 3 months due to progressive disease.

[1] = Plasma pharmacokinetics of telatinib and metabolite BAY 60-8246 (LC-MS-MS, non-compartmental); format: in vivo, human; details: for half-life / Tmax / Cmax / AUC(0-t) / AUC: human; for AUC(0-t): read-out: AUC0–12; for AUC: read-out: AUC0–tn
Protocol: Patients with at least one valid pharmacokinetic profile were valid for the pharmacokinetic analysis. Plasma samples were collected at predose and 0.5, 1, 2, 3, 4, 6, 8, and 12 h postdose on day 1 and day 14 of cycle 1 and were analysed for BAY 57-9352 and its demethylated metabolite M-2, BAY 60-8246, using a validated LC-MS-MS analytical method.
Plasma pharmacokinetic parameters, area under the curve from time 0–12 h after dosing (AUC0−12), area under the curve from time 0 to last data point (AUC0−tn), maximum plasma concentration (Cmax), and time to maximum plasma concentration (tmax) of telatinib and its metabolite (BAY 60-8246) as well as half-life of telatinib were calculated by non-compartmental methods using WinNonlin version 4.1.a (Pharsight Corporation). The linear-logarithmic trapezoidal rule was used for calculating AUC. Half-life was calculated by linear least squares regression after logarithmic transformation of the terminal concentrations. Pharmacokinetic parameters were analysed using descriptive statistics.

[2] = set-up: method as in printed; details: in vitro studies; background statement, ref not given; cited from earlier work
[3] = test system: human aortic smooth muscle cells; set-up: method as in printed; details: background statement, ref not given; cited from earlier work
bFGF = assay: Plasma bFGF concentration (ELISA); format: in vivo, human; details: after 14 days of multiple dosing
Protocol: (§1) The effects of telatinib treatment on the plasma concentrations of sVEGFR-2, VEGF and bFGF were determined from blood samples taken at baseline, on day 14 of cycles 1, 2, 4, 6, etc. and at the final visit. Samples were analysed using the relevant quantitative enzyme-linked immunosorbent assay (ELISA) (R&D Systems Europe, Oxford, UK) according to the manufacturer's instructions. DCE-MRI was performed at baseline, on day 2 (only cycle 1), and on day 14 of cycles 1–3 to assess tumour blood flow/tumour vessel permeability in a subgroup of patients ([Morgan et al, 2003]).
(§2) To assess the biological activity of telatinib, plasma concentration analyses for the angiogenic markers VEGF, sVEGFR-2, bFGF, PDGF and […] were performed at baseline and during the course of the study. Furthermore, DCE-MRI measurements were done at baseline, on days 2 and 14 of cycle 1 and on day 14 of cycles 2 and 3. Evaluable DCE-MRI results were available for a subgroup of patients treated at dose levels of 300 mg BID or higher.

[4] = test system: tumour blood flow/tumour vessel permeability; assay: DCE-MRI of tumour blood flow/tumour vessel permeability; format: in vivo, human
Protocol: as §1, §2

[5] = test system: cytochrome P450 (CYP) isoforms; set-up: method as in printed; details: background statement, ref not given, cited from earlier work
VEGFR-2 = test system: VEGFR-2; set-up: method as in printed; details: biochemical assay; background statement, ref not given; cited from earlier work
[6] = telatinib in plasma, day 14 cycle 1, 75 mg BID oral, 25 mg mesylate tablet, n=4, geometric mean (%CV)
[7] = telatinib in plasma, day 14 cycle 1, 150 mg BID oral, 25 mg mesylate tablet, n=6, geometric mean (%CV)
[8] = telatinib in plasma, day 14 cycle 1, 300 mg BID oral, 25 mg mesylate tablet, n=6, geometric mean (%CV)
[9] = telatinib in plasma, day 14 cycle 1, 600 mg BID oral, 150 mg mesylate tablet, n=11, geometric mean (%CV)
[10] = telatinib in plasma, day 14 cycle 1, 900 mg BID oral, 150 mg mesylate tablet, n=12, geometric mean (%CV)
[11] = telatinib in plasma, day 14 cycle 1, 1200 mg BID oral, 150 mg mesylate tablet, n=6, geometric mean (%CV)
[12] = telatinib in plasma, day 14 cycle 1, 1500 mg BID oral, 150 mg mesylate tablet, n=12, geometric mean (%CV)

**Q.** Which IL-8 plasma levels (IL-8) does the source give for CNC(=O)c1cc(COc2nnc(Nc3ccc(Cl)cc3)c3ccoc23)ccn1 [telatinib] here?
**A.** no relevant changes

**Q.** And the Relative bioavailability ([1]; 150 mg tablet formulation compared with 25 mg tablet formulation)?
**A.** less when compared with the 25 mg tablet formulation

**Q.** What about the “Dose proportionality of geometric mean Cmax and AUC0−12” value ([1]; BID dosing, plateaued in the 900–1500 mg BID dose range) of the same molecule?
**A.** less than dose-proportional

**Q.** And the “Increase in geometric mean Cmax between dose levels” value ([1]; between the 300 and 600 mg BID dose level)?
**A.** two-fold

**Q.** What about the half-life ([1]; plasma, oral, telatinib, across dose levels, discussion statement, read-out: half-life) of the same molecule?
**A.** 6.6 to 10.9 h

**Q.** What about the Tmax ([1]; plasma, telatinib, oral, BID dosing, read-out: median tmax) of the same molecule?
**A.** ≤ 3 h

**Q.** And the Cmax [1, 6]?
**A.** 212 ng/mL

**Q.** What about the AUC(0-t) [1, 6] of the same molecule?
**A.** 1390 ng·h/mL

**Q.** What about the AUC [1, 6] of the same molecule?
**A.** 1380 ng·h/mL

**Q.** And the half-life ([1]; telatinib in plasma, day 14 cycle 1, 75 mg BID oral, 25 mg mesylate tablet, n=4, geometric mean (%CV), read-out: t1/2 (converted))?
**A.** 7.4 h

**Q.** What about the Tmax ([1]; telatinib in plasma, day 14 cycle 1, 75 mg BID oral, 25 mg mesylate tablet, n=4, median (range), read-out: tmax) of the same molecule?
**A.** 2.1 h

**Q.** And the Cmax [1, 7]?
**A.** 219 ng/mL

**Q.** And the AUC(0-t) [1, 7]?
**A.** 1730 ng·h/mL

**Q.** And the AUC [1, 7]?
**A.** 1750 ng·h/mL

**Q.** And the half-life ([1]; telatinib in plasma, day 14 cycle 1, 150 mg BID oral, 25 mg mesylate tablet, n=6, geometric mean (%CV), read-out: t1/2 (converted))?
**A.** 10.9 h

**Q.** And the Tmax ([1]; telatinib in plasma, day 14 cycle 1, 150 mg BID oral, 25 mg mesylate tablet, n=6, median (range), read-out: tmax)?
**A.** 3 h

**Q.** What about the AUC(0-t) ([1]; telatinib in plasma, day 14 cycle 1, 300 mg BID oral, 25 mg mesylate tablet, n=6 (sample size reduced by 2), geometric mean (%CV)) of the same molecule?
**A.** 2860 ng·h/mL

**Q.** What about the half-life ([1]; telatinib in plasma, day 14 cycle 1, 300 mg BID oral, 25 mg mesylate tablet, n=6 (sample size reduced by 2), geometric mean (%CV), read-out: t1/2 (converted)) of the same molecule?
**A.** 8 h

**Q.** What about the Cmax [1, 8] of the same molecule?
**A.** 389 ng/mL

**Q.** What about the AUC [1, 8] of the same molecule?
**A.** 1920 ng·h/mL

**Q.** And the Tmax ([1]; telatinib in plasma, day 14 cycle 1, 300 mg BID oral, 25 mg mesylate tablet, n=6, median (range), read-out: tmax)?
**A.** 1.5 h

**Q.** What about the Cmax [1, 9] of the same molecule?
**A.** 810 ng/mL

**Q.** What about the AUC(0-t) [1, 9] of the same molecule?
**A.** 5430 ng·h/mL

**Q.** What about the AUC [1, 9] of the same molecule?
**A.** 5430 ng·h/mL

**Q.** And the half-life ([1]; telatinib in plasma, day 14 cycle 1, 600 mg BID oral, 150 mg mesylate tablet, n=11, geometric mean (%CV), read-out: t1/2 (converted))?
**A.** 8.7 h

**Q.** And the Tmax ([1]; telatinib in plasma, day 14 cycle 1, 600 mg BID oral, 150 mg mesylate tablet, n=11, median (range), read-out: tmax)?
**A.** 2.1 h

**Q.** And the half-life ([1]; telatinib in plasma, day 14 cycle 1, 900 mg BID oral, 150 mg mesylate tablet, n=12 (sample size reduced by 2), geometric mean (%CV), read-out: t1/2 (converted))?
**A.** 5.6 h

**Q.** What about the Cmax [1, 10] of the same molecule?
**A.** 1280 ng/mL

**Q.** And the AUC(0-t) [1, 10]?
**A.** 7300 ng·h/mL

**Q.** And the AUC [1, 10]?
**A.** 7410 ng·h/mL

**Q.** And the Tmax ([1]; telatinib in plasma, day 14 cycle 1, 900 mg BID oral, 150 mg mesylate tablet, n=12, median (range), read-out: tmax)?
**A.** 2 h

**Q.** And the Cmax [1, 11]?
**A.** 1140 ng/mL

**Q.** And the AUC(0-t) [1, 11]?
**A.** 7260 ng·h/mL

**Q.** What about the AUC [1, 11] of the same molecule?
**A.** 7100 ng·h/mL

**Q.** What about the half-life ([1]; telatinib in plasma, day 14 cycle 1, 1200 mg BID oral, 150 mg mesylate tablet, n=6, geometric mean (%CV), read-out: t1/2 (converted)) of the same molecule?
**A.** 5.6 h

**Q.** And the Tmax ([1]; telatinib in plasma, day 14 cycle 1, 1200 mg BID oral, 150 mg mesylate tablet, n=6, median (range), read-out: tmax)?
**A.** 2.5 h

**Q.** And the Cmax [1, 12]?
**A.** 964 ng/mL

**Q.** And the AUC(0-t) [1, 12]?
**A.** 6290 ng·h/mL

**Q.** What about the AUC [1, 12] of the same molecule?
**A.** 6170 ng·h/mL

**Q.** And the half-life ([1]; telatinib in plasma, day 14 cycle 1, 1500 mg BID oral, 150 mg mesylate tablet, n=12, geometric mean (%CV), read-out: t1/2 (converted))?
**A.** 6.6 h

**Q.** And the Tmax ([1]; telatinib in plasma, day 14 cycle 1, 1500 mg BID oral, 150 mg mesylate tablet, n=12, median (range), read-out: tmax)?
**A.** 2.5 h

**Q.** And the median tmax ([1]; telatinib, oral, 75 mg BID to 1500 mg BID dose range)?
**A.** ≤ 3 h

**Q.** What about the “drug–drug interactions due to displacement from plasma protein-binding sites” value [2] of the same molecule?
**A.** unlikely

**Q.** What about the PDGF-stimulated growth [3] of the same molecule?
**A.** inhibited

**Q.** And the bFGF plasma levels (bFGF)?
**A.** no relevant changes

**Q.** What about the “iAUC60 for the gadolinium curve” value ([4]; DCE-MRI, dose levels of 300 mg BID or higher) of the same molecule?
**A.** decrease

**Q.** And the “telatinib AUC0−12 at which substantial decreases in the gadolinium iAUC60 ratio were observed” value ([4]; day 14 of cycle 1)?
**A.** about 4 mg h l^−1

**Q.** And the “total daily dose at which substantial decreases in the gadolinium iAUC60 ratio were observed” value ([4]; day 14 of cycle 1)?
**A.** ≥ 600 mg

**Q.** What about the “main target of metabolic degradation” value [5] of the same molecule?
**A.** N-methyl group

**Q.** And the “risk of drug–drug interactions” value ([5]; human microsomes, hepatocytes or single CYP isoforms)?
**A.** no or only a very low risk of drug–drug interactions

**Q.** And the “biotransformation by CYP isoforms” value ([5]; in vitro)?
**A.** metabolised by various CYP isoforms

**Q.** And the “VEGFR-2 tyrosine kinase activity” value (VEGFR-2)?
**A.** potent inhibitor
